In patent publication US20230416239A1, “COMPOUNDS AND METHODS FOR TREATING A CYTOKINE-MEDIATED DISEASE” (CONSERVATOIRE NATIONAL DES ARTS ET MÉTIERS, priority 2020, published 2023):

Columns and labels:
[1] = target: TNFα (Homo sapiens, UniProt P01375); assay: Immunoassay binding test, TNFa; conditions: compounds 100 to 0.78 μM; TNFα 10 ng/ml, receptor 100 ng/ml; read-out: BINDING TNF IC50
Protocol: Microtiter plates (96 wells) are covered with 100 μl of receptor per well, and incubated overnight at 4° C. The following day, after 2 washes in PBS/Tween20, the plates are saturated with 150 μl of PBS/BSA 2% per well, for 2 h at 37° C. […] The cytokine is diluted in series (six concentrations) in a final volume of 120 μl per well. […] The different mixtures are incubated for 2 h at 37° C. 100 μl of each mixture are then transferred to the microtiter plate, respecting the plate plan previously defined and incubated overnight at 4° C. After three washes, 100 μl of biotinylated anti-cytokine secondary antibody are added to each well, then incubated for 2 h at 37° C. After three washes, 100 μl of Avidin-HRP (1/500th dilution) are added and incubated for 30 minutes at 37° C. […] The plates are then read with a spectrophotometer at 450 nm, measuring the optical density for each well.
(§1) This binding test is carried out with different cytokines: TNFa, IL-4, IL-6 and IL-13. For IL-6, the incubation of molecules with the cytokine also requires the presence of IL-6Ra at a final concentration of 200 ng/ml.
(§2) The final concentrations used for each of the cytokines are presented below: […]

[2] = target: TNFa/TNFRI interaction (Homo sapiens, UniProt P01375); assay: TNFa/TNFRI interaction displacement test; format: binding; conditions: for Displacement (%): compounds at 50 μM, human TNFRI 100 ng/ml; for Displacement EC50 TNFa in presence of compound: Difference: Compound EC50 minus SPD304 EC50;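 on Displacement EC50 TNFa in presence of compound: Difference: SPD304 reference at 20 µM final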
Protocol: Microtiter plates (96 wells) are covered with 100 μl per well of human TNFRI, at a concentration of 100 ng/ml, then incubated overnight at 4° C. The following day, after two washes in PBS/Tween20, the plates are saturated with 150 μl of PBS/BSA 2% for 2 h at 37° C.
100 μl of each mixture are then transferred to the microtiter plate, respecting the established plate plan and incubated overnight at 4° C.
After three washes, 100 μl of biotinylated anti-cytokine secondary antibody are added to each well and incubated for 2 h at 37° C. After three washes, 100 Avl Avidin-HRP (dilution 1/500th) are added and incubated for 30 minutes at 37° C. […] The plates are then read with a spectrophotometer at 450 nm, measuring the optical density (OD) for each well.

[3] = target: T1, IL-4 (Homo sapiens, UniProt P05112); assay: Immunoassay binding test, IL-4; conditions: for IC50: IL-4 400 ng/ml, receptor 100 ng/ml, read-out: BINDING IL4 IC50
T1 sequence (P05112 25-153): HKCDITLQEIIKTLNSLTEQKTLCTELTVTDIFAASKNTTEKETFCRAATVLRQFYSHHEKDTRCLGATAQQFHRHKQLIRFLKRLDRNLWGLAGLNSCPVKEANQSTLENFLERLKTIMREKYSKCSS
Protocol: (§3) Microtiter plates (96 wells) are covered with 100 μl of receptor per well, and incubated overnight at 4° C. The following day, after 2 washes in PBS/Tween20, the plates are saturated with 150 μl of PBS/BSA 2% per well, for 2 h at 37° C. Synthetic compounds are diluted in series (final concentrations: 100 to 0.78 μM) then a fixed amount of cytokine in PBS/BSA 1% is added to the compounds, in a final volume of 120 μl per well. […] The cytokine is diluted in series (six concentrations) in a final volume of 120 μl per well. The cytokine is used in the absence of small molecule as well as the range of SPD304 as positive controls and the absence of cytokine and synthetic molecule as negative control. The different mixtures are incubated for 2 h at 37° C. 100 μl of each mixture are then transferred to the microtiter plate, respecting the plate plan previously defined and incubated overnight at 4° C. After three washes, 100 μl of biotinylated anti-cytokine secondary antibody are added to each well, then incubated for 2 h at 37° C. After three washes, 100 μl of Avidin-HRP (1/500th dilution) are added and incubated for 30 minutes at 37° C. […] The plates are then read with a spectrophotometer at 450 nm, measuring the optical density for each well.
as §1, §2

[4] = target: IL-13 (Homo sapiens, UniProt P35225); assay: Immunoassay binding test, IL-13; conditions: for IC50: IL-13 400 ng/ml, receptor 100 ng/ml, read-out: BINDING IL13 IC50
Protocol: Microtiter plates (96 wells) are covered with 100 μl of receptor per well, and incubated overnight at 4° C. The following day, after 2 washes in PBS/Tween20, the plates are saturated with 150 μl of PBS/BSA 2% per well, for 2 h at 37° C. Synthetic compounds are diluted in series (final concentrations: 100 to 0.78 μM) then a fixed amount of cytokine in PBS/BSA 1% is added to the compounds, in a final volume of 120 μl per well. […] The cytokine is diluted in series (six concentrations) in a final volume of 120 μl per well. […] The different mixtures are incubated for 2 h at 37° C. 100 μl of each mixture are then transferred to the microtiter plate, respecting the plate plan previously defined and incubated overnight at 4° C. After three washes, 100 μl of biotinylated anti-cytokine secondary antibody are added to each well, then incubated for 2 h at 37° C. After three washes, 100 μl of Avidin-HRP (1/500th dilution) are added and incubated for 30 minutes at 37° C. […] The plates are then read with a spectrophotometer at 450 nm, measuring the optical density for each well.
as §1, §2

[5] = target: IL-6 (Homo sapiens, UniProt P05231); assay: Immunoassay binding test, IL-6 (gp130 receptor, IL-6Ra present); conditions: IL-6Ra 200 ng/ml
Protocol: as §3, §1, §2

Chain of IL-13 (P35225 25-146, species assumed): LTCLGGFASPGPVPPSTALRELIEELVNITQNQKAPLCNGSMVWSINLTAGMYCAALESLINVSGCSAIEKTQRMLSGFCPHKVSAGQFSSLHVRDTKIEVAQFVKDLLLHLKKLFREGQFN
Chain of IL-6 (P05231 30-212, species assumed): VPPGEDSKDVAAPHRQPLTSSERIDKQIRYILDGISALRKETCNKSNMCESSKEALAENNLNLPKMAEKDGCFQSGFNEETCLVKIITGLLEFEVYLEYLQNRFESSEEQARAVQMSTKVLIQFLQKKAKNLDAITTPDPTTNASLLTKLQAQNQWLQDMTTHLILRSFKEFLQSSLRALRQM
Chain of TNFα (P01375 77-233 limits assumed, species assumed): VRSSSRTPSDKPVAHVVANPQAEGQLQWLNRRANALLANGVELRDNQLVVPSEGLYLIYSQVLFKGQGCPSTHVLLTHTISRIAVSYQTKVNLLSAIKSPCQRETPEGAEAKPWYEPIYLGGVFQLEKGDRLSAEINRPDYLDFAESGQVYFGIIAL
Chain of TNFa/TNFRI interaction (P01375 77-233 limits assumed): as the sequence (P01375 77-233 limits assumed, species assumed) above

Compound | IC50 [1] [µM] | Displacement (%) [2] [%] | BINDING IL4 % Neutra at 100 μM [3] [%] | IC50 [3] [µM] | BINDING IL13 % Neutra at 100 μM [4] [%] | BINDING IL6 % Neutra at 100 μM [5] [%] | IC50 [4] [µM] | Displacement EC50 TNFa in presence of compound: Difference [2] [ng/mL]
O=S(=O)(NCCCCN(Cc1cccnc1F)Cc1cn(S(=O)(=O)c2ccccc2)c2ccccc12)N1CCCCC1 [Compound 80] | > 50 | 0 | 29.1 | > 100 | 0 | 0 |  | 
CN(CCCCCN(Cc1cccnc1)Cc1cn(S(=O)(=O)c2ccccc2)c2ccccc12)C1CCCCC1 [Compound 36] | 3.9 | 165 | 97.4 | 3.4 | 95 | −1.8 | 19.8 | 
NCCN(Cc1cccnc1)Cc1cn(S(=O)(=O)c2ccccc2)c2ccccc12 [Compound 59] | 35.8 | 78 | 89.4 | 43.9 | 59.3 | 0 | > 50 | 
CN(CCCN(Cc1cccnc1)Cc1cn(S(=O)(=O)c2ccccc2)c2ccccc12)C1CCCCC1 [Compound 9] | 7.3 | 175 | 94.4 | 8 | 59.7 | 21 | > 50 | 4.3
O=S(=O)(NCCCCN(Cc1cccnc1F)Cc1cn(S(=O)(=O)c2ccccc2)c2ccccc12)N1CCOCC1 [Compound 82] | > 50 | 18 | 27.9 | > 100 | 0 | 5 |  | 
CCCN(CCOCCN(Cc1cccnc1F)Cc1cn(S(=O)(=O)c2ccccc2)c2ccccc12)C1CCCCC1 [Compound 97, N-(2-(2-(((2-fluoropyridin-3-yl)methyl) ((1-(phenylsulfonyl)-1H-indol-3-yl)methyl)amino)ethoxy)ethyl)-N-propylcyclohexanamine] | 10.5 | 153 | 94.6 | 6.6 | 73.9 | 0 | > 50 | 
CCCN(CCCCN(Cc1cccnc1F)Cc1cn(S(=O)(=O)c2ccccc2)c2ccccc12)C1CCCC1 [Compound 98] | 9.9 | 127 | 93.4 | 6.2 | 90.2 | 0 | > 50 | 
O=S(=O)(c1ccccc1)n1cc(CN(CCOCCNC2CCCCC2)Cc2cccnc2F)c2ccccc21 [Compound 64, N-(2-(2-(((2-fluoropyridin-3-yl)methyl) ((1-(phenylsulfonyl)-1H-indol-3-yl)methyl)amino)ethoxy)ethyl)cyclohexanaminee] | 8.9 | 197 | 90.7 | 5.1 | 83.9 | 0 | 28.2 | 
Fc1cc(CN(Cc2cn(-c3cccc(C(F)(F)F)c3)c3ccccc23)CC2CCCN(C3CCCCC3)C2)ccn1 (stereo not drawn) [Compound 20] | 19.7 | 88 | 99.5 | 4.8 | 97.5 | 18.5 | 6.2 | 
CCCCN(CCOCCN(Cc1cccnc1F)Cc1cn(S(=O)(=O)c2ccccc2)c2ccccc12)C1CCCC1 [Compound 109, N-butyl-N-(2-(2-(((2-fluoropyridin-3-yl)methyl)((1-(phenylsulfonyl)-1H-indol-3-yl)methyl)amino)ethoxy)ethyl)cyclopentanamine] | 11.5 | 207 | 86.3 | 9.6 | 7.8 | 1 |  | 
CN1CCN(C(=O)NCCCCN(Cc2cccnc2F)Cc2cn(S(=O)(=O)c3ccccc3)c3ccccc23)CC1 [Compound 83] | 21 | 93 | 84.6 | > 50 | 1 | 0 |  | 
O=S(=O)(c1ccccc1)n1cc(CN(CCCCNC2CCCCC2)Cc2cccnc2F)c2ccccc21 [Compound 43, N1-cyclohexyl-N4-((2-fluoropyridin-3-yl)methyl)-N4-((1-(phenylsulfonyl)-1H-indol-3-yl)methyl)butane-1,4-diamine] | 8.8 | 87 | 93.2 | 6.7 | 85.1 | 0 | > 50 | 
CCN(CCOCCN(Cc1cccnc1F)Cc1cn(S(=O)(=O)c2ccccc2)c2ccccc12)C1CCCCC1 [Compound 100] | 8 | 128 | 87.7 | 8.6 | 83.0 | 0 | > 50 | 
CN(CCCN(Cc1ccncc1)Cc1cn(S(=O)(=O)c2ccccc2)c2ccccc12)C1CCCCC1 [Compound 11] | 4.4 | 215 | 97.6 | 6.2 | 90.2 | −3 | > 50 | 
O=S(=O)(c1ccccc1)n1cc(CN(Cc2ccnc(F)c2)CC2CCCN(C3CCCCC3)C2)c2ccccc21 (stereo not drawn) [Compound 19] | 10.9 | 169 | 99 | 6.3 | 98.1 | 12.6 | > 50 | 9.9
CN(CCCN(Cc1cccnc1)Cc1cn(-c2cccc(C(F)(F)F)c2)c2ccccc12)C1CCCCC1 [Compound 13] | 4.3 | 186 | 97.9 | 5 | 85.2 | 8.9 | > 50 | 6.4
